Data reported in publication PMC5362899, “Structural insights into the nucleotide base specificity of P2X receptors” (Scientific Reports, 2017).

Key:
[1] = target: T1, zebrafish P2X4 (zfP2X4) WT (Danio rerio, UniProt F8W463); assay: Two Electrode Voltage Clamp recording of Xenopus oocytes expressing zebrafish P2X4 WT; assay type: cell-based; conditions: 1 mM nucleotide for 10 sec after prior application of 100 μM ATP; holding potential −70 mV; n = 4
T1 construct: The cRNAs encoding zebrafish P2X4 (NP_705939; WT); expressed in transfected cells; host or cells: Xenopus laevis oocytes injected with cRNA from pGEMHE
T1 sequence (F8W463 1-389): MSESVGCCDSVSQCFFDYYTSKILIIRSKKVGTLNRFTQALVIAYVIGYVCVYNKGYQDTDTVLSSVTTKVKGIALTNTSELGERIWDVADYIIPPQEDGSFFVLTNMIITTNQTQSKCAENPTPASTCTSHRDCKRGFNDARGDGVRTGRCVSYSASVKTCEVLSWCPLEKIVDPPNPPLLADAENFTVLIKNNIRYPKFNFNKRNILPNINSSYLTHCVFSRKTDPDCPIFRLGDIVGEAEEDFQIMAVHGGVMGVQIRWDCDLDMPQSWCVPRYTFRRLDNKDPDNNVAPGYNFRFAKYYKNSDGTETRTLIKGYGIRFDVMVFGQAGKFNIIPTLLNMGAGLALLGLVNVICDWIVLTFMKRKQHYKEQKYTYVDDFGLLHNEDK
From the text: To assess the nucleotide base specificity of zebrafish P2X4 (zfP2X4), we first performed Two Electrode Voltage Clamp (TEVC) recording of Xenopus oocytes. As shown previously, the initial “priming” application with a low concentration of ATP increases P2X receptors sensitivity to second or more applications of ligands, which is useful for evaluating the affinity of ligands. Therefore, we expressed zfP2X4 in oocytes and recorded the zfP2X4-associated currents evoked by the application of high concentrations (1 mM) of nucleoside triphosphates (ATP, CTP, GTP and UTP), following the prior application of 100 μM ATP.
Figure 1 Current responses of zebrafish P2X4 evoked by nucleoside triphosphates. (A–D) Representative currents of zebrafish P2X4 WT, evoked first by 100 μM ATP and then by (A) 1 mM ATP, (B) 1 mM CTP, (C) 1 mM GTP and (D) 1 mM UTP. Each nucleotide was applied for 10 sec. The holding potential was −70 mV.
(§1) The cRNAs encoding zebrafish P2X4 (NP_705939; WT) and rat P2X4 (NP_113782.1; WT and mutants) were transcribed from pGEMHE plasmids, using a mMessage mMachine® T7 ULTRA kit (Ambion, Huntingdon, Cambridgeshire, UK). Xenopus laevis oocytes were prepared, and RNA (100 ng for zebrafish P2X4, and 20 ng for rat P2X4) was injected into the oocytes. The oocytes were incubated at 18 °C in Barth’s solution, containing 88 mM NaCl, 1 mM KCl, 2.4 mM NaHCO3, 10 mM HEPES, 0.33 mM Ca(NO3)2, 0.41 mM CaCl2, and 0.82 mM MgSO4, pH 7.4, supplemented with 50 μg/ml gentamicin, and were used for recording after 2–3 days. Recording solutions contained 100 mM NaCl, 5 mM HEPES, 2 mM MgCl2, pH 7.3, and nucleoside triphosphates (ATP, CTP, GTP, and UTP), which were freshly prepared each day. Oocytes were held at −70 mV with a bath-clamp amplifier (OC-725C, Warner Co., USA), and macroscopic currents were recorded and analyzed using the pClamp 10 software (Molecular Devices, USA)[33][34]. We measured n = 4 for zebrafish P2X4 data and n = 7–9 for rat P2X4 data.

[2] = target: T2, rat P2X4 WT (rWT) (Rattus norvegicus, UniProt P51577); assay: Two-Electrode Voltage Clamp recording, rat P2X4 WT in Xenopus oocytes; assay type: cell-based; conditions: for nucleotide-evoked currents: GTP and UTP applied at 3 mM (Fig. S4); for EC50: oocytes held at −70 mV, n = 9, read-out: EC50 (evoked current, dose-response)
T2 construct: rat P2X4 (NP_113782.1; WT and mutants) were transcribed from pGEMHE plasmids; expressed in transfected cells; host or cells: Xenopus laevis oocytes injected with cRNA from pGEMHE
T2 sequence (P51577 1-388): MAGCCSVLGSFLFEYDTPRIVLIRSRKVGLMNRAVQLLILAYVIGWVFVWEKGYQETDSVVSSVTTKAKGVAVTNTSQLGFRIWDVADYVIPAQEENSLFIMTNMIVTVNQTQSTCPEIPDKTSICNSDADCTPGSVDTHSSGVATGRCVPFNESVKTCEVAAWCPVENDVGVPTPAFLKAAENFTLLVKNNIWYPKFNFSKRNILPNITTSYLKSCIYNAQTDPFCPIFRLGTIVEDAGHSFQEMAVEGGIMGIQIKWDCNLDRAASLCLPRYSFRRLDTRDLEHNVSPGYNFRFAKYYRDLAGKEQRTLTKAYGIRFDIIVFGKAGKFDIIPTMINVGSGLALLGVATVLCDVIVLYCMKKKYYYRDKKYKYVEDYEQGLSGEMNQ
From the text: To further investigate the functional roles of the residues involved in the base recognition, T189 and R143, we performed an electrophysiological analysis with the rat P2X4, since its electrophysiological properties have been well established. We first assessed the functional role of T189 in zfP2X4 and introduced mutations at the equivalent residue of the rat P2X4 to create three mutants (^rT186A, ^rT186V and ^rT186S; the superscript “r” means rat P2X4). […] Therefore, we examined the ^rWT and the ^rT186S mutant.
Figure 4 Current responses of ^rWT, ^rT186S, ^rH140A and ^rH140R evoked by ATP and CTP. (A,B) Representative currents of ^rWT evoked by ATP (1–300 μM) (A) and CTP (10–10,000 μM) (B). (C,D) Representative currents of the ^rT186S mutant evoked by ATP (1–300 μM) (C) and CTP (10–10,000 μM) (D). (E,F) Representative currents of the ^rH140A mutant evoked by ATP (1–300 μM) (E) and CTP (10–10,000 μM) (F). (G,H) Representative currents of the ^rH140R mutant evoked by ATP (1–300 μM) (G) and CTP (10–10,000 μM) (H). (I–K) Concentration-response curves evoked by ATP and CTP in the ^rWT and the ^rT186S mutant (I), in the ^rWT and the ^rH140A mutant (J) and in the ^rWT and the ^rH140R mutant (K). Symbols are defined in the figure, and bars depict means ± SEM (n = 7–9).
as §1

Structure (SMILES)	zfP2X4-associated currents evoked by nucleoside triphosphate [1]	nucleotide-evoked currents [2]	EC50 [2]
O=c1ccn([C@@H]2O[C@H](COP(=O)(O)OP(=O)(O)OP(=O)(O)O)[C@@H](O)[C@H]2O)c(=O)[nH]1 [UTP]	not GTP- and UTP-evoked currents	no GTP- and UTP-evoked currents were detected	–
Nc1ccn([C@@H]2O[C@H](COP(=O)(O)OP(=O)(O)OP(=O)(O)O)[C@@H](O)[C@H]2O)c(=O)n1 [CTP]	detected specific ATP- and CTP-evoked currents	ATP- and CTP-evoked currents were detected	564 ± 170 µM
Nc1nc2c(ncn2[C@@H]2O[C@H](COP(=O)(O)OP(=O)(O)OP(=O)(O)O)[C@@H](O)[C@H]2O)c(=O)[nH]1 [GTP]	not GTP- and UTP-evoked currents	no GTP- and UTP-evoked currents were detected	–
Nc1ncnc2c1ncn2[C@@H]1O[C@H](COP(=O)(O)OP(=O)(O)OP(=O)(O)O)[C@@H](O)[C@H]1O [ATP, Adenosine 5-triphosphate]	detected specific ATP- and CTP-evoked currents	ATP- and CTP-evoked currents were detected	16.2 ± 5.4 µM
